Reference: a melting point compilation (Tetko et al.; mined from patent text by program, amines drawn as free bases though some values may be those of a salt)

SMILES	melting point
COCCCNC(=O)c1cc(C(=O)OC)c(O)c2ncc(Cc3ccc(F)cc3)cc12	166 to 167 °C
COc1cccc2c1CCC[C@H]2NC(=O)c1cccc(Cl)c1O	175 to 176 °C
Cc1cc(C)c(S(=O)(=O)OS(=O)(=O)c2c(C)cc(C)cc2C)c(C)c1	194 to 198 °C
Cc1nnn(Cc2cc(-c3ncco3)ccc2-c2ccccc2S(=O)(=O)Nc2onc(C)c2C)n1	168 to 174 °C
O=C1NCc2c1ccc(Nc1ccccc1)c2Nc1ccccc1	225 °C
Cc1cc(F)ccc1-c1nc(N[C@@H](C)CO)nc2c1ccc(=O)n2-c1c(F)cccc1F	90 to 95 °C
CCc1nc2cc(C(=O)O)c(Cl)cc2n1-c1ccc(CCNC(=O)NS(=O)(=O)c2ccc(C)cc2)cc1	145 to 150 °C
CC(=NOCC1CC1)c1cc(Cl)ccc1NS(=O)(=O)C(F)(F)F	53 to 54 °C
O=C1COC(C#Cc2cccnc2)(C(F)(F)F)c2cc(Cl)ccc2N1 (stereo unspecified)	219 to 221 °C
Cc1cc(Oc2ccc(C(F)(F)F)cc2Cl)cc(C)c1N	104 to 105 °C
CC1=CC(OCc2ccccc2)(OC(=O)c2ccc(Br)c(OCCn3cnnn3)c2C)N(C)N1 (stereo unspecified)	122 to 125 °C
CC(C)(C)c1cc(NC=O)n[nH]1	204 to 206 °C
CC(c1cccc(Cl)c1)(n1ccnc1)C1(O)C2CC3CC(C2)CC1C3 (stereo unspecified)	121 °C
CSc1[nH]c(-c2ccccc2C)cc1C#N	148 to 149 °C
NC1CCC(C(=O)Nc2cccc(-c3cccc4c3/C(=C/c3ccc[nH]3)C(=O)N4)c2)CC1 (stereo unspecified)	210 to 212 °C
COC(=O)Cn1nnnc1-c1ccc(Cl)cc1	156 to 158 °C
CS(=O)c1cc(C(C)(C)C)c(O)c(C(C)(C)C)c1 (stereo unspecified)	171 to 173 °C
c1ccc(COc2cccc(CSc3nc4cnccc4[nH]3)c2)cc1	161 to 164 °C
COCCC1(c2ccc(O)cc2)N=CC=N1	173 to 176 °C
O=P(O)(O)OP(=O)(O)O	212 °C
CCOC(=O)c1cn(C)c2c(OCC)csc2c1=O	198 to 200 °C
CN(C)c1ccc(S(=O)CCCCCC(=O)NO)cc1 (stereo unspecified)	95 to 97 °C
CCOC(=O)CCCNc1cccc(Br)c1	65 °C
CCCCCCCCS(=O)(=O)c1ccc(C#N)c(C#N)c1	70 to 71 °C
CCC1(COC(=O)c2cccc3ccccc23)COC1	62 °C
Cc1ccc(S(=O)(=O)NCC(=O)c2ccccc2)cc1	148 to 149 °C

SMILES	melting point
O=C(C=Cc1cccnc1)NCCCOC1CCN(Cc2ccccc2)CC1	100 to 102 °C
CC(C)(C)C1CC(=Cc2ccccc2)C(=O)C(=Cc2ccccc2)C1 (stereo unspecified)	137 to 139 °C
Nc1c2c(cc3c1CCC3)CCC2	94.5 to 96.6 °C
COc1cc(CN2CCc3cc(O)c(OC)cc3C2)cc(OC)c1	127 to 128 °C
CCOc1nn(-c2ccc(C(F)(F)F)cn2)cc1CCCOc1cc(OC)ccc1CCC(=O)O	115 to 116 °C
CCCCC[C@@H](COc1ccc(C(=O)O)cc1)c1ccc2c(c1)C(C)(C)CCC2(C)C	74 to 76 °C
Cc1nc(-c2ccc(OCC(C)C)c([N+](=O)[O-])c2)sc1C(=O)OCC(C)C	112 to 113 °C
Cc1ccc(CC2CCN(C(=O)CNc3ccc4[nH]c(=O)oc4c3)CC2)cc1	212 to 215 °C
CC(C)(C)c1cc(Br)c(O)c(C=NO)c1	167 to 169 °C
O=C(N1Cc2ccccc2Nc2ccccc21)C(F)(F)F	140 to 141 °C
CNCc1ccc(-c2cc3ncnc(Nc4ccc5[nH]ccc5c4)c3s2)cc1	140 to 147 °C
CCn1nc(OCCCc2ccc(OCCOC(C)C)cc2Oc2ncc(C(F)(F)F)cc2Cl)cc1CCC(=O)O	130 to 132 °C
CSC(=NS(=O)(=O)c1ccccc1Cl)SC	119 to 123 °C
CC1=C(C(=O)OC(C)C)C(c2cccc([N+](=O)[O-])c2)c2c(nc(N3CCOCC3)nc2N2CCOCC2)N1 (stereo unspecified)	229 °C
CNc1nc(Cl)ccc1[N+](=O)[O-]	114 °C
CCOc1cnc(C(C)C)nc1O	154 °C
CCN(CC)C(=O)n1cnc(SCC2CC2)n1	51 to 52 °C
CC(=CS(N)(=O)=O)c1ccccc1	101 to 102 °C
CC(C)S(=O)(=O)c1nc(OS(C)(=O)=O)cs1	56.5 to 58.5 °C
CC(C)c1nc(C(C)C)c(C(C)O)c(-c2ccc(F)cc2)c1-c1ccccc1 (stereo unspecified)	155 to 157 °C
CCCOC(Nc1ccccc1)(OCCC)c1ccnc(C(=O)c2ccc(C)cc2)c1	120 to 121 °C
Brc1ccc2c(c1)/C(=C\CN1CCCC1)c1ccccc1CO2	108 to 109 °C
COC(=O)c1cc(O)cc2cc(-c3ccc(O)cc3)oc12	236 to 238 °C
CCC1C2C3Cc4ccc(OC)c5c4C2(CCN3C)C(O5)C(O)C1(C)C (stereo unspecified)	104 to 108 °C
COc1ccc(N)c(S)c1	104 °C
